According to ChEMBL document CHEMBL4145553, “Design, synthesis, and biological evaluation of novel amide and hydrazide based thioether analogs targeting Histone deacteylase (HDAC) enzymes” (Eur J Med Chem, 2018):
Calls of active or inactive are those of the source. No cut-off for these calls is given here.

Experiments:
[1] = system: NCI-H322M; test: Growth inhibition of human NCI-H322M cells assessed as cell growth at 10^-8 M incubated for 48 hrs by sulforhodamine B assay relative to control; type: functional; settings: read-out: Activity
[2] = system: SNB-75; test: Growth inhibition of human SNB75 cells assessed as cell growth at 10^-8 M incubated for 48 hrs by sulforhodamine B assay relative to control; type: functional; settings: SNB-75, 48 h, read-out: Activity
[3] = system: U-251; test: Growth inhibition of human U251 cells assessed as cell growth at 10^-8 M incubated for 48 hrs by sulforhodamine B assay relative to control; type: functional; settings: U-251, 48 h, read-out: Activity
[4] = system: CCRF-CEM; test: Growth inhibition of human CCRF-CEM cells assessed as cell growth at 10^-7 M incubated for 48 hrs by sulforhodamine B assay relative to control; type: functional; settings: read-out: Activity
[5] = system: K562; test: Growth inhibition of human K562 cells assessed as cell growth at 10^-7 M incubated for 48 hrs by sulforhodamine B assay relative to control; type: functional; settings: K562, 48 h, read-out: Activity
[6] = system: NCI-H522; test: Growth inhibition of human NCI-H522 cells assessed as cell growth at 10^-7 M incubated for 48 hrs by sulforhodamine B assay relative to control; type: functional; settings: NCI-H522, 48 h, read-out: Activity
[7] = system: Malme-3M; test: Growth inhibition of human MALME-3M cells assessed as cell growth at 10^-7 M incubated for 48 hrs by sulforhodamine B assay relative to control; type: functional; settings: read-out: Activity
[8] = system: A498; test: Growth inhibition of human A498 cells assessed as cell growth at 10^-7 M incubated for 48 hrs by sulforhodamine B assay relative to control; type: functional; settings: A498, 48 h, read-out: Activity
[9] = system: MCF7; test: Growth inhibition of human MCF7 cells assessed as cell growth at 10^-7 M incubated for 48 hrs by sulforhodamine B assay relative to control; type: functional; settings: MCF7, 48 h, read-out: Activity
[10] = system: BT-549; test: Growth inhibition of human BT549 cells assessed as cell growth at 10^-7 M incubated for 48 hrs by sulforhodamine B assay relative to control; type: functional; settings: BT-549, 48 h, read-out: Activity
[11] = system: SR; test: Growth inhibition of human SR cells assessed as cell growth at 10^-6 M incubated for 48 hrs by sulforhodamine B assay relative to control; type: functional; settings: read-out: Activity
[12] = system: HT-29; test: Growth inhibition of human HT-29 cells assessed as cell growth at 10^-6 M incubated for 48 hrs by sulforhodamine B assay relative to control; type: functional; settings: HT-29, 48 h, read-out: Activity
[13] = system: SK-MEL-5; test: Growth inhibition of human SK-MEL-5 cells assessed as cell growth at 10^-6 M incubated for 48 hrs by sulforhodamine B assay relative to control; type: functional; settings: SK-MEL-5, 48 h, read-out: Activity
[14] = system: NCI/ADR-RES; test: Growth inhibition of human NCI/ADR-RES cells assessed as cell growth at 10^-6 M incubated for 48 hrs by sulforhodamine B assay relative to control; type: functional; settings: read-out: Activity
[15] = system: SN12C; test: Growth inhibition of human SN12C cells assessed as cell growth at 10^-6 M incubated for 48 hrs by sulforhodamine B assay relative to control; type: functional; settings: read-out: Activity
[16] = system: NCI-H226; test: Growth inhibition of human NCI-H226 cells assessed as cell growth at 10^-5 M incubated for 48 hrs by sulforhodamine B assay relative to control; type: functional; settings: NCI-H226, 48 h, read-out: Activity
[17] = system: HT-29; test: Growth inhibition of human HT-29 cells assessed as cell growth at 10^-5 M incubated for 48 hrs by sulforhodamine B assay relative to control; type: functional; settings: HT-29, 48 h, read-out: Activity
[18] = system: IGROV-1; test: Growth inhibition of human IGROV1 cells assessed as cell growth at 10^-5 M incubated for 48 hrs by sulforhodamine B assay relative to control; type: functional; settings: IGROV-1, 48 h, read-out: Activity
[19] = system: ACHN; test: Growth inhibition of human ACHN cells assessed as cell growth at 10^-5 M incubated for 48 hrs by sulforhodamine B assay relative to control; type: functional; settings: read-out: Activity
[20] = system: T47D; test: Growth inhibition of human T47D cells assessed as cell growth at 10^-5 M incubated for 48 hrs by sulforhodamine B assay relative to control; type: functional; settings: read-out: Activity
[21] = system: HT-29; test: Growth inhibition of human HT-29 cells assessed as cell growth at 10^-4 M incubated for 48 hrs by sulforhodamine B assay relative to control; type: functional; settings: HT-29, 48 h, read-out: Activity
[22] = system: SNB-19; test: Growth inhibition of human SNB19 cells assessed as cell growth at 10^-4 M incubated for 48 hrs by sulforhodamine B assay relative to control; type: functional; settings: SNB-19, 48 h, read-out: Activity
[23] = system: SNB-75; test: Growth inhibition of human SNB75 cells assessed as cell growth at 10^-4 M incubated for 48 hrs by sulforhodamine B assay relative to control; type: functional; settings: SNB-75, 48 h, read-out: Activity
[24] = system: MDA-MB-468; test: Growth inhibition of human MDA-MB-468 cells assessed as cell growth at 10^-4 M incubated for 48 hrs by sulforhodamine B assay relative to control; type: functional; settings: MDA-MB-468, 48 h, read-out: Activity
[25] = system: CCRF-CEM; test: Growth inhibition of human CCRF-CEM cells incubated for 48 hrs by sulforhodamine B assay; type: functional
[26] = system: NCI-H226; test: Growth inhibition of human NCI-H226 cells incubated for 48 hrs by sulforhodamine B assay; type: functional; settings: NCI-H226, 48 h
[27] = system: Malme-3M; test: Growth inhibition of human MALME-3M cells incubated for 48 hrs by sulforhodamine B assay; type: functional
[28] = system: ACHN; test: Growth inhibition of human ACHN cells incubated for 48 hrs by sulforhodamine B assay; type: functional
[29] = system: MCF7; test: Growth inhibition of human MCF7 cells incubated for 48 hrs by sulforhodamine B assay; type: functional; settings: MCF7, 48 h
[30] = system: HL-60; test: Cell cycle arrest in human HL60 cells assessed as accumulation at S-phase by propidium iodide staining based flow cytometry (reference value: 24.9%); type: functional
[31] = system: HL-60; test: Induction of apoptosis in human HL60 cells assessed as early apoptotic cells by propidium iodide/Annexin V staining based flow cytometry (reference value: 0.37%); type: functional
[32] = system: MDA-MB-435; test: Induction of apoptosis in human MDA-MB-435 cells assessed as increase in caspase-9 expression by qRT-PCR method; type: functional, cell-based
[33] = system: MDA-MB-435; test: Downregulation of HDAC3 mRNA expression in human MDA-MB-435 cells by qRT-PCR method; type: functional, cell-based
[34] = read-out: LC50 (the source's name)
[35] = read-out: pLC50 (the source's name) (converted)

CCS/C(Nc1ccccc1)=C(\C#N)C(=O)Nc1ccc(OC)cc1
growth at 0.01 µM [1]: 95% | growth at 0.01 µM [2]: 94% | growth at 0.01 µM [3]: 97% | growth at 0.1 µM [4]: 83% | growth at 0.1 µM [5]: 88% | growth at 0.1 µM [6]: 94% | growth at 0.1 µM [7]: 92% | growth at 0.1 µM [8]: 90% | growth at 0.1 µM [9]: 93% | growth at 0.1 µM [10]: 89% | growth at 1 µM [11]: 57% | growth at 1 µM [12]: 99% | growth at 1 µM [13]: 80% | growth at 1 µM [14]: 73% | growth at 1 µM [15]: 96% | growth at 10 µM [16]: 37% | growth at 10 µM [17]: 8% | growth at 10 µM [18]: 39% | growth at 10 µM [19]: 33% | growth at 10 µM [20]: 25% | growth at 100 µM [21]: -8% | growth at 100 µM [22]: 14% | growth at 100 µM [23]: -22% | growth at 100 µM [24]: -24% | GI50 ([25]; read-out: GI50): 1.83 µM | CC50 [25, 34]: > 100 µM | TGI ([25]; read-out: TGI): > 100 µM | GI50 ([25]; read-out: pGI50 (converted)): 1.82 µM | CC50 [25, 35]: > 100 µM | TGI ([25]; read-out: pTGI): > 100 µM | GI50 ([26]; read-out: GI50): 5.45 µM | CC50 [26, 34]: > 100 µM | TGI ([26]; read-out: TGI): 50.7 µM | GI50 ([26]; read-out: pGI50 (converted)): 5.5 µM | CC50 [26, 35]: > 100 µM | TGI ([26]; read-out: pTGI (converted)): 50.1 µM | GI50 ([27]; read-out: GI50): 47.3 µM | CC50 [27, 34]: > 100 µM | TGI ([27]; read-out: TGI): > 100 µM | GI50 ([27]; read-out: pGI50 (converted)): 46.8 µM | CC50 [27, 35]: > 100 µM | TGI ([27]; read-out: pTGI): > 100 µM | GI50 ([28]; read-out: GI50): 5.04 µM | CC50 [28, 34]: > 100 µM | TGI ([28]; read-out: TGI): > 100 µM | GI50 ([28]; read-out: pGI50 (converted)): 5.01 µM | CC50 [28, 35]: > 100 µM | TGI ([28]; read-out: pTGI): > 100 µM | GI50 ([29]; read-out: GI50): 2.71 µM | CC50 [29, 34]: > 100 µM | TGI ([29]; read-out: TGI): > 100 µM | GI50 ([29]; read-out: pGI50 (converted)): 2.69 µM | CC50 [29, 35]: > 100 µM | TGI ([29]; read-out: pTGI): > 100 µM | Activity [30]: 15.51% | Activity [31]: 4.89% | Activity [32]: Active | Activity [33]: Active

CCS/C(Nc1ccccc1)=C(\C#N)C(=O)N/N=C\c1ccc(Cl)cc1Cl
growth at 0.01 µM [1]: 94% | growth at 0.01 µM [2]: 88% | growth at 0.01 µM [3]: 101% | growth at 0.1 µM [4]: 95% | growth at 0.1 µM [5]: 90% | growth at 0.1 µM [6]: 82% | growth at 0.1 µM [7]: 89% | growth at 0.1 µM [8]: 78% | growth at 0.1 µM [9]: 89% | growth at 0.1 µM [10]: 87% | growth at 1 µM [11]: 76% | growth at 1 µM [12]: 101% | growth at 1 µM [13]: 81% | growth at 1 µM [14]: 87% | growth at 1 µM [15]: 96% | growth at 10 µM [16]: 27% | growth at 10 µM [17]: 11% | growth at 10 µM [18]: 42% | growth at 10 µM [19]: 43% | growth at 10 µM [20]: 24% | growth at 100 µM [21]: 9% | growth at 100 µM [22]: 21% | growth at 100 µM [23]: -17% | growth at 100 µM [24]: -7% | GI50 ([25]; read-out: GI50): 3.07 µM | CC50 [25, 34]: > 100 µM | TGI ([25]; read-out: TGI): > 100 µM | GI50 ([25]; read-out: pGI50 (converted)): 3.09 µM | CC50 [25, 35]: > 100 µM | TGI ([25]; read-out: pTGI): > 100 µM | GI50 ([26]; read-out: GI50): 4 µM | CC50 [26, 34]: > 100 µM | TGI ([26]; read-out: TGI): > 100 µM | GI50 ([26]; read-out: pGI50 (converted)): 3.98 µM | CC50 [26, 35]: > 100 µM | TGI ([26]; read-out: pTGI (converted)): > 100 µM | GI50 ([27]; read-out: GI50): 9.3 µM | CC50 [27, 34]: > 100 µM | TGI ([27]; read-out: TGI): > 100 µM | GI50 ([27]; read-out: pGI50 (converted)): 9.33 µM | CC50 [27, 35]: > 100 µM | TGI ([27]; read-out: pTGI): > 100 µM | GI50 ([28]; read-out: GI50): 7.08 µM | CC50 [28, 34]: > 100 µM | TGI ([28]; read-out: TGI): > 100 µM | GI50 ([28]; read-out: pGI50 (converted)): 7.08 µM | CC50 [28, 35]: > 100 µM | TGI ([28]; read-out: pTGI): > 100 µM | GI50 ([29]; read-out: GI50): 2.99 µM | CC50 [29, 34]: > 100 µM | TGI ([29]; read-out: TGI): > 100 µM | GI50 ([29]; read-out: pGI50 (converted)): 3.02 µM | CC50 [29, 35]: > 100 µM | TGI ([29]; read-out: pTGI): > 100 µM | Activity [30]: 13.18% | Activity [31]: 7.69% | Activity [32]: Active | Activity [33]: Active
